In article PMC5538625, “Perception of root‐active CLE peptides requires CORYNE function in the phloem vasculature” (EMBO Reports, 2017):
Residue numbers refer to the chain shown, from its start. Read-outs that look alike come from different tables or passages of the source. Where no end group is shown, it is not given here. [ ]: non-standard residue; d: D form. Hyp = O=C(O)[C@@H]1C[C@@H](O)CN1

Key:
[1] = test system: Arabidopsis Col-0 seedlings (primary root); conditions: cited from earlier work
Experimental: page 3: EMBO reports - Peer Review Process File - EMBO-2016-43535 including a report from the same group (Kinoshita et al, 2007 Plant Cell Physiol 48:1821; Whitford et al, 2008 PNAS 105:18625; Depuydt et al. 2013 PNAS 110:7074) where CLE6 peptides exert the root shortening activity only at a very high concentration (10 µM). Results on CLE8, CLE16, CLE17, CLE20 and CLE22 are also different from the previous report (Depuydt et al. 2013). […] Please indicate the meaning of the asterisks in column "Col-0" in Figure 2B, "***a" and "***b" in Figure 2C, describe all the peptide sequences used in this study and re-confirm if the results are correct and reproducible. The details are the following.” ….and subordinate comments.

[2] = target: BAM1; conditions: CLE9gp arabinosylated, CLE9p non-arabinosylated; ref Shinohara et al., 2012; cited from earlier work
Excerpt: “6. We'd also like the authors to answer or discuss following aspects in the discussion part.” “6-1. How do you explain the insensitivity of crn to all CLE peptides? Does it control expression of CLV as well?” At this point we can only speculate on this. As we highlight in the discussion, maybe the expression of other, yet to be identified CLE receptors in the root also depends on CR ...

[3] = target: IDA peptide (Arabidopsis thaliana) (UniProt Q8LAD7); conditions: cited from earlier work
[4] = target: IDA peptide (Arabidopsis thaliana) (UniProt Q8LAD7); conditions: cited from earlier work; remark: listed apart in the source
[5] = test system: Arabidopsis Col-0 seedlings (primary root); test: Root growth assay, wild type (Col-0); format: in vivo, Arabidopsis thaliana; conditions: 50 nM peptide, 9-day-old seedlings, primary root length, n ≥ 12
Experimental: Plant tissue culture, plant transformation, and common molecular biology procedures such as genomic DNA isolation, genotyping, sequencing, and peptide or inhibitor treatments were performed according to standard procedures as previously described 9, 19, 44, 65.
All mutant and transgenic lines were in the Arabidopsis Columbia‐0 (Col‐0) background. The following previously described mutant alleles were used throughout: brx‐2, bam3‐2, brx‐2 bam3, clv2‐1, serk1‐1 and serk1‐3, serk2‐1, serk3‐1, serk4‐1, serk5‐1 9, 47, 59, 66, 67, 68. The crn loss‐of‐function mutant allele (crn‐10) carries a single nucleotide insertion in front of the 7th codon, which leads to a frameshift and three subsequent premature stop codons after amino acid 10 52.

[6] = target: T1, BAM3 extracellular (LRR) domain (30–651) (Arabidopsis thaliana, UniProt O65440); test: biochemical; format: binding
T1 construct: azurocidin signal peptide (N); made in house; host or cells: Trichoplusia ni Tnao38 insect cells (baculovirus, secreted)
Experimental: Isothermal titration calorimetry assays were run on a Nano ITC (1 ml standard cell; 250 μl syringe; TA Instruments) at 25°C in 20 mM sodium citrate pH 5 and 150 mM NaCl for all ITCs with BAM3 and 10 mM Bis–Tris pH 6 and 100 mM NaCl for the ITC with PXY. […] For each experiment, 10 μl was repetitively injected into the cell in 150 s time intervals. The measured heat rates for the BAM3‐ECD vs. CLE45, BAM3^QYY vs. CLE45, BAM3‐ECD vs. Y‐CLE45, BAM3‐ECD vs. CLV3, BAM3‐ECD vs. Y‐CLV3, and PXY‐ECD vs. CLE41/44 were corrected by subtracting the heat rates measured for injecting CLE45, Y‐CLE45, CLV3, Y‐CLV3, or CLE41/44 into the ITC buffer, respectively. The data for the BAM3‐ECD + CLE45 vs. SERK1‐ECD measurement was corrected by subtracting heat rates acquired by injecting SERK1‐ECD into a cell containing CLE45. Data analyses and modeling were carried out using the software supplied by the manufacturer (NanoAnalyze, version 3.5).

[7] = target: T2, PXY extracellular domain (PXY-ECD) (Arabidopsis thaliana, UniProt Q9FII5 30-647); test: ITC
T2 chain: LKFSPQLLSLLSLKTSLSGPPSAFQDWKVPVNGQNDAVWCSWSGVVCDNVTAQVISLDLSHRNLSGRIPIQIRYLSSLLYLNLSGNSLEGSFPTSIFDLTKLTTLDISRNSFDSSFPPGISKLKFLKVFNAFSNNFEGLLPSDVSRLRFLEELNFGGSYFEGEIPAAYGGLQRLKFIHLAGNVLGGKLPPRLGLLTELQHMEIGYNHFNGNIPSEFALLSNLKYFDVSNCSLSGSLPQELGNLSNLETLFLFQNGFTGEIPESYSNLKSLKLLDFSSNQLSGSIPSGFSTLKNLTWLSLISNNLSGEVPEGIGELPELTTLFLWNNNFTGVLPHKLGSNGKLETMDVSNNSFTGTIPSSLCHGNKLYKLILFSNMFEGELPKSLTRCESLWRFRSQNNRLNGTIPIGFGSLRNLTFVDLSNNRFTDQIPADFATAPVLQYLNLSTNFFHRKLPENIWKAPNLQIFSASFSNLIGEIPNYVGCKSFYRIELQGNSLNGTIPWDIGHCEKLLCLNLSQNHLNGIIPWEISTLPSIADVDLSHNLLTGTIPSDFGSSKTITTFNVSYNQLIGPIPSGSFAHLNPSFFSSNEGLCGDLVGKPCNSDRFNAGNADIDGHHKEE

[8] = target: T3, BAM3^QYY extracellular domain (BAM3^QYY-ECD) (Arabidopsis thaliana, UniProt O65440 30-651, Q226A | Y228A | Y231A); test: ITC
T3 sequence: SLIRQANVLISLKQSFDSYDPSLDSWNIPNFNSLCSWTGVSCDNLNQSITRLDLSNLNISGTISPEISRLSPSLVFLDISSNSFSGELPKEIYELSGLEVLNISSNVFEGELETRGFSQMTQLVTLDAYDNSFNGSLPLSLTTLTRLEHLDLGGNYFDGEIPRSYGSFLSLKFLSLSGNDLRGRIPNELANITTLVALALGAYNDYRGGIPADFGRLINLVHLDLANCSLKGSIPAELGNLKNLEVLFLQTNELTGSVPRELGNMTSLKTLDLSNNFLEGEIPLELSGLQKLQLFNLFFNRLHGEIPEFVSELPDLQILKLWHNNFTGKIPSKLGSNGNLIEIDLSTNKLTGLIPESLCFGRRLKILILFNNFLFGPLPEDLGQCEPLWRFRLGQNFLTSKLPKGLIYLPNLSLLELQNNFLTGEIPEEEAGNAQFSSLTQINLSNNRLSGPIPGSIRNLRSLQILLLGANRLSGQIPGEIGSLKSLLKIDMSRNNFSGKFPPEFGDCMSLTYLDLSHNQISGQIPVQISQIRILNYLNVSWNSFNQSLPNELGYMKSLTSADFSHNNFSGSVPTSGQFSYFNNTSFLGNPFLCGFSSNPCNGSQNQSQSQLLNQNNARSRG

[9] = target: T4, BAM3 extracellular domain (BAM3-ECD) (Arabidopsis thaliana, UniProt O65440 30-651); test: ITC; peptide titrated (10 μl injections, 150 s intervals) into the BAM3 ectodomain in the cell; Nano ITC, 25°C, 20 mM sodium citrate pH 5, 150 mM NaCl; conditions: both partners purified
T4 construct: Cloned in a modified pFastBac1 with an N-terminal azurocidin signal peptide for secretion; MALDI-TOF mass 94,586 Da; also called BAM3 LRR domain; BAM3 ectodomain; source: Trichoplusia ni Tnao38 cells, secreted, purified (Ni2+, StrepII, size-exclusion chromatography)
T4 sequence (looked up): T3 sequence with A197Q, A199Y, A202Y

[10] = target: T5, BAM3^QYY extracellular domain (BAM3^QYY-ECD) (Arabidopsis thaliana, UniProt O65440 30-651, Q226A | Y228A | Y231A); test: as above; conditions: both partners purified
T5 construct: Same construct as m1 (azurocidin signal peptide for secretion) with three point mutations; also called mutant BAM3^QYY; source: Trichoplusia ni Tnao38 cells, secreted, purified (Ni2+, StrepII, size-exclusion chromatography)
T5 sequence (looked up): T3 sequence

[11] = target: T6, BAM3 extracellular domain (BAM3-ECD) (Arabidopsis thaliana, UniProt O65440 30-651); test: ITC
T6 chain: T3 sequence with A197Q, A199Y, A202Y

T1 sequence (O65440 30-651): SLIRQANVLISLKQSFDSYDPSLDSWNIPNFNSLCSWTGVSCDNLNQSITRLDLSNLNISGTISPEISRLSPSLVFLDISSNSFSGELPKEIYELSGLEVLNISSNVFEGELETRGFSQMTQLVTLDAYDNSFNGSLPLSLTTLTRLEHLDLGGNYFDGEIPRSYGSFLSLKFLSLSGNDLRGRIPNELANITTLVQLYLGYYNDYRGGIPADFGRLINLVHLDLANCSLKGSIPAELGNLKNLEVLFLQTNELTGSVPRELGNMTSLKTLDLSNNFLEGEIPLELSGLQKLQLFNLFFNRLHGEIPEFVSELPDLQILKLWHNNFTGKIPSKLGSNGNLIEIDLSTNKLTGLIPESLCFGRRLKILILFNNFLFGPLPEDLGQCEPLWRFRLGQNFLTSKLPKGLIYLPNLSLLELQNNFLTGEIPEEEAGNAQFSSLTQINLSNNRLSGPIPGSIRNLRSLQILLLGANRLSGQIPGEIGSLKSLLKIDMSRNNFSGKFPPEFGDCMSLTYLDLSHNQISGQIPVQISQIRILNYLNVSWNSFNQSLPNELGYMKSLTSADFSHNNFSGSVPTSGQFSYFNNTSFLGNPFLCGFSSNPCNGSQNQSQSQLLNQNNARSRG
Sequence of IDA peptide (Arabidopsis thaliana) (Q8LAD7 27-77): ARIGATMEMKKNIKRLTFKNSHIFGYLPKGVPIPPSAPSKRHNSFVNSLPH

## CLE6: CLE6 peptide (earlier reports; not assayed) (RVSPGGPDPQHH; ends and bridges not checked; UniProt Q8S8N3 70-81, looked up)
[1]; referee's comment, ref Kinoshita et al, 2007, Whitford et al, 2008, Depuydt et al. 2013
  concentration needed for root shortening activity: 10 µM
[1]; tissue culture, nM to low μM concentrations
  root growth suppression in words: not root-active

## CLE9gp: arabinosylated CLE9 (RLVPSGPNPLHN; ends and bridges not checked; also: arabinosylated, place not given here; UniProt Q9FZE4 109-120, looked up)
[2]
  Kd: 2.2 nM

## CLE9p: non-arabinosylated CLE9 (RLVPSGPNPLHN; ends and bridges not checked; UniProt Q9FZE4 109-120, looked up)
[2]
  Kd: 1.8 nM

## HAESA (from UniProt P47735)
[3]
  Kd: 350 nM
[4]
  Kd: 20000 nM

## RKVKTGSNPLHN [CLE20, CLE20: …]
[5]
  impact on root growth: significant, reproducible impact on root growth

## RKVPNGPDPIHN [CLE25, CLE25: …]
[5]
  impact on root growth: significant, reproducible impact on root growth

## RLVHTGPNPLHN [CLE16, CLE16: …]
[5]
  impact on root growth: significant, reproducible impact on root growth

## RLVPKGPNPLHN [CLE14, CLE14: …]
[5]
  impact on root growth: significant, reproducible impact on root growth

## RLVPSGPNPLHH [CLE13, CLE13: …]
[5]
  impact on root growth: significant, reproducible impact on root growth

## RLVPSGPNPLHN [CLE9/10, CLE9/10: …]
[5]
  impact on root growth: significant, reproducible impact on root growth

## RQIPTGPDPLHN [CLE18, CLE18: …]
[5]
  impact on root growth: significant, reproducible impact on root growth

## RQVPTGSDPLHH [CLE40, CLE40: …]
[5]
  impact on root growth: significant, reproducible impact on root growth

## RRVPTGPNPLHH [CLE8, CLE8: …]
[5]
  impact on root growth: significant, reproducible impact on root growth

## RRVRRGSDPIHN [CLE45]
[6]
  Kd: 116 ± 36 nM

## RSIPTGPNPLHN [CLE21, CLE21: …]
[5]
  impact on root growth: significant, reproducible impact on root growth

## RTVPSGPDPLHH [CLV3, CLV3: …]
[6]; ITC, 25°C, 20 mM sodium citrate pH 5, 150 mM NaCl, ± fitting errors (95% confidence interval), n.d.: not detectable
  N (stoichiometry): 0.978 +/- 0.23
[6]; ITC, Fig EV1C vs. CLE45
  reduction in binding affinity of CLV3 vs. CLE45 (fold): 70 fold
[5]
  impact on root growth: significant, reproducible impact on root growth

## RVVPSGPNPLHH [CLE11, CLE11: …]
[5]
  impact on root growth: significant, reproducible impact on root growth

B1: CLE41/44 peptide (ITC, unmodified as printed) (peptide)
peptide: HEVPSGPNPISN
notes: CLE41/44 (TDIF), mature 12-residue CLE peptide of Arabidopsis, the same from CLE41 and CLE44; The same peptide is also encoded by CLE44; also called TDIF; source: synthetic peptide (Peptide Specialty Laboratories, Heidelberg)
[7]
  Kd: 12.2 nM

B2: CLE45 peptide (peptide)
peptide: RRVRRGSDPIHN
notes: CLE45, mature 12-residue CLE peptide of Arabidopsis; also called synthetic CLE45 peptide; source: synthetic peptide (Peptide Specialty Laboratories, Heidelberg)
[8]
  Kd: 1110 nM
[9]
  Kd: ~120 nM
  stoichiometry N: 1
[10]
  fold weaker than with the wild-type LRR domain: ~8 fold

B3: N-terminally tyrosine-modified CLE45 peptide (Y-CLE45) (peptide)
peptide: YRRVRRGSDPIHN
[11]
  Kd: 12700 nM

B4: CLV3 peptide (ITC) (peptide)
peptide: RTV[Hyp]SG[Hyp]DPLHHH
notes: CLAVATA3 (CLV3) mature CLE peptide of Arabidopsis, 13 residues as printed for the ITC; the ITC peptide is printed with three C-terminal histidines; source: synthetic peptide (Peptide Specialty Laboratories, Heidelberg)
[11]
  Kd: 8620 nM
[9]
  Kd: ~10000 nM
